Measurements taken from patent publication US8809526B2, “Synthesis of cyclopentaquinazolines” (ONYX Pharmaceuticals, Inc., priority 2010, dated 2014).
≈ marks a conversion by molar mass, not a printed value.

Assay: physchem
Format: physicochemical
Details: organic solvent or mixture
Procedure: A 22 L, 3 neck flask was equipped with an overhead stirrer, a N2 inlet, and a type-J Teflon® covered thermocouple. The flask was purged with N2 and charged with the crude alcohol 12 prepared above, acetonitrile (7 L) and triethylamine (1400 mL, 10.0 mol). The batch was cooled to ˜10° C.-15° C. using a cold water bath. To the resulting yellow-green suspension was added solid TBDMSCl (1125 g, 7.50 mol), portionwise over ˜20 minutes. The addition was mildly exothermic causing the internal reaction temperature to rise to ˜20° C. After the addition was complete the reaction was stirred overnight at 20° C. under an atmosphere of N2. The following morning the reaction was judged to be >95% complete by TLC or HPLC. The dark green reaction mixture was filtered through a plasticware filter pot (24″×11″) prepacked with gravity grade silica gel (3 kg-slurried in acetonitrile) and a top and bottom layer of celite 21 (500 grams each). The filter pot was rinsed with acetonitrile (10 L, ACS grade) prior to adding the reaction mixture to the pot. Once the reaction mixture containing green solids was added, the filter pot was rinsed with acetonitrile (80 L, ACS grade), collecting 10 L cuts. The washing operation was monitored by TLC until no more product was detected in the washings. This was concentrated in vacuo to afford 2.2 kg of crude which needed to be purified further by silica gel chromatography. […]

CC(C)(C)[Si](C)(C)OCc1nc2cc3c(cc2c(=O)[nH]1)C(=O)CC3 [compound 7, 2-(t-Butyldimethylsiloxymethyl)-4,6-dioxo-3,4,7,8-tetrahydro-3H-cyclopenta[g]quinazoline]
solubility (solubility in 1:1 hexanes:ethyl acetate): 15 mg/mL (≈ 43.5 mM) | solubility (solubility in ethyl acetate): ~25 mg/mL (≈ 72.6 mM)
